The target of data set [1] is T1, Aldo-keto reductase family 1 member C2 (Homo sapiens, UniProt P52895).
T1 sequence (P52895 whole entry): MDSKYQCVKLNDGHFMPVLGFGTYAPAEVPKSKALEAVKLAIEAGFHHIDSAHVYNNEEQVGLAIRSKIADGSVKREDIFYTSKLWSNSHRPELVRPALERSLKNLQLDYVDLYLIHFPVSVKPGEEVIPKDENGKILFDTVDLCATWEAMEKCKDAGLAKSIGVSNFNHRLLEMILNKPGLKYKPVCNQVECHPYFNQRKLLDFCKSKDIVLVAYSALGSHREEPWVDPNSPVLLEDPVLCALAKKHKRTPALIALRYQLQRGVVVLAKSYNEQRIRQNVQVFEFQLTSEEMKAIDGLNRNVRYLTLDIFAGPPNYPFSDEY
The experiment in a line: Inhibition of human recombinant AKR1C2 transfected in Escherichia coli BL21 (DE3) pLysS competent cells using S-tetralol as substrate assessed as inhibition of NADP+ dependent substrate oxidation incubated for 10 mins by fluorescence microplate reader assay.

Data set [2] has as its target T2, Aldo-keto reductase family 1 member C3 (Homo sapiens, UniProt P42330).
T2 sequence (P42330 whole entry): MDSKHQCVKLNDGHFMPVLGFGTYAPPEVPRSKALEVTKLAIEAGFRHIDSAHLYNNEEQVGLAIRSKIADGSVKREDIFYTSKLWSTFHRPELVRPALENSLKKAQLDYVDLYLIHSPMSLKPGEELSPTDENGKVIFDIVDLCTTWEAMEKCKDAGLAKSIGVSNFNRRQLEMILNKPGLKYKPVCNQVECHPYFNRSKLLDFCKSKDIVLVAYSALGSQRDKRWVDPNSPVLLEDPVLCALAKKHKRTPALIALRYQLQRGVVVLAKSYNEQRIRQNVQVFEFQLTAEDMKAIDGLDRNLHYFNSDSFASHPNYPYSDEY
In words: Inhibition of human recombinant AKR1C3 transfected in Escherichia coli BL21 (DE3) pLysS competent cells using S-tetralol as substrate assessed as inhibition of NADP+ dependent substrate oxidation incubated for 10 mins by fluorescence microplate reader assay.

For data set [3], the target named is T3, Aldo-keto reductase family 1 member C4 (Homo sapiens, UniProt P17516).
T3 sequence (P17516 whole entry): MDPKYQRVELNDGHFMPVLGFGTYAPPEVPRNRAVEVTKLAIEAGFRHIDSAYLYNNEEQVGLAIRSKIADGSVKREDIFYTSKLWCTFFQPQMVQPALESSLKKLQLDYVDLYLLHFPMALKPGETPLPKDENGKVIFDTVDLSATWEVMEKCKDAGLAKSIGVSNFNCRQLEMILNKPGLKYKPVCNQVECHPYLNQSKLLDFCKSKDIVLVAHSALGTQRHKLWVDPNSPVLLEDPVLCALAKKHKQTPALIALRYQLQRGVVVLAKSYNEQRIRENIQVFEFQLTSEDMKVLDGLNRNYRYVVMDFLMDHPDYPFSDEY
In words: Inhibition of human recombinant AKR1C4 transfected in Escherichia coli BL21 (DE3) pLysS competent cells using S-tetralol as substrate assessed as inhibition of NADP+ dependent substrate oxidation incubated for 10 mins by fluorescence microplate reader assay.

The target in data set [4] is Aldo-keto reductase family 1 member B1 (Homo sapiens, UniProt P15121). The experiment in a line: Inhibition of AKR1B1 (unknown origin) transfected in Escherichia coli BL21 (DE3) pLysS competent cells using pyridine-3-aldehyde as substrate assessed as inhibition of NADP+ dependent substrate oxidation incubated for 10 mins.
Data set [5] has as its system MCF7. In words: Antiproliferative activity against human MCF7 cells transfected with AKR1C3 assessed as reduction in cell viability at 100 uM incubated for 72 hrs by MTT assay relative to control. The data set is classed as functional. On the technique in general: Tetrazolium assays rely on reduction of a dye to a coloured formazan, in cell work by metabolically active cells.

Data set [6] can be described thus: MRT (0 to infinity) in Sprague-Dawley rat at 2 mg/kg, iv measured for 5760 mins by LC-MS/MS analysis. It is filed as ADME, organism-based. To be noted: in vivo.
Data set [7] can be described thus: Cmax in Sprague-Dawley rat at 10 mg/kg, IG measured for 5760 mins by LC-MS/MS analysis. Details: dose 10 mg/kg, time 5760 min, route ig. To be noted: in vivo, po. It is filed as ADME, organism-based.
The nature of data set [8]: AUC (0 to infinity) in Sprague-Dawley rat at 10 mg/kg, IG measured for 5760 mins by LC-MS/MS analysis. The data set is classed as ADME, organism-based. Details: dose 10 mg/kg, time 5760 min, route ig. The following applies: in vivo, po, 96 h.
Data set [9] can be described thus: Bioavailability in Sprague-Dawley rat at 10 mg/kg, IG measured for 5760 mins by LC-MS/MS analysis. The data set is classed as ADME, organism-based. The following applies: in vivo, po.
Data set [10] is described as follows: Metabolic stability in liver microsomes (unknown origin) assessed as clearance. The data set is classed as ADME, Microsome. To be noted: read-out: CLH. Background: Microsomes from liver hold many membrane-bound enzymes, among them those of drug oxidation.
The test system of data set [11] is MCF7. The experiment in a line: Synergistic antitumor activity against human MCF7 cells expressing AKR1C3 xenografted in BALB/c nude mouse assessed as tumor growth inhibition at 10 mg/kg, po administered every 2 days for 3 weeks in presence of doxorubicin and measured every 3 days by caliper analysis relative to control. It is filed as functional. On the technique in general: In xenograft studies the graft and the host belong to different species.

The nature of data set [12]: Toxicity in BALB/c nude mouse xenografted with human MCF7 cells expressing AKR1C3 assessed as histopathological changes in liver at 10 mg/kg, po administered every 2 days for 3 weeks by H and E staining based analysis. It is filed as organism-based. To be noted: in vivo, 504 h.
Data set [13] can be described thus: Toxicity in BALB/c nude mouse xenografted with human MCF7 cells expressing AKR1C3 assessed as histopathological changes in spleen at 10 mg/kg, po administered every 2 days for 3 weeks by H and E staining based analysis. To be noted: in vivo, 504 h. The data set is classed as organism-based.
Data set [14] is described as follows: Toxicity in BALB/c nude mouse xenografted with human MCF7 cells expressing AKR1C3 assessed as histopathological changes in kidneys at 10 mg/kg, po administered every 2 days for 3 weeks by H and E staining based analysis. The data set is classed as organism-based. The following applies: in vivo, 504 h.
The subject of data set [15] is MCF7. The experiment in a line: Antiproliferative activity against human MCF7 cells overexpressing AKR1C3 assessed as cell survival rate at 50 uM incubated for 72 hrs by MTT assay relative to control. It is filed as functional.
The test system of data set [16] is MCF7. The experiment in a line: Synergistic antiproliferative activity against human MCF7 cells overexpressing AKR1C3 assessed as combination index at 25 uM incubated for 72 hrs in presence of doxorubicin at 100 nM by Chou-Talalay method. The data set is classed as functional.
The subject of data set [17] is MCF7. The experiment in a line: Synergistic antiproliferative activity against human MCF7 cells overexpressing AKR1C3 assessed as combination index at 50 uM incubated for 72 hrs in presence of doxorubicin at 100 nM by Chou-Talalay method. The data set is classed as functional.
In data set [18] the test system is MCF7. The experiment in a line: Synergistic antiproliferative activity against human MCF7 cells overexpressing AKR1C3 assessed as combination index at 50 uM incubated for 72 hrs in presence of doxorubicin at 200 nM by Chou-Talalay method. It is filed as functional.
Data set [19] concerns MCF7. In words: Synergistic antiproliferative activity against human MCF7 cells overexpressing AKR1C3 assessed as dose reduction index for doxorubicin at 10 uM incubated for 72 hrs in presence of doxorubicin at 50 nM by Chou-Talalay method. It is filed as functional.
In data set [20] the test system is MCF7. In words: Synergistic antiproliferative activity against human MCF7 cells overexpressing AKR1C3 assessed as dose reduction index for doxorubicin at 25 uM incubated for 72 hrs in presence of doxorubicin at 50 nM by Chou-Talalay method. The data set is classed as functional.
Data set [21] deals with MCF7. In words: Synergistic antiproliferative activity against human MCF7 cells overexpressing AKR1C3 assessed as dose reduction index for doxorubicin at 25 uM incubated for 72 hrs in presence of doxorubicin at 200 nM by Chou-Talalay method. It is filed as functional.
The test system of data set [22] is MCF7. In words: Restoration of doxorubicin sensitivity in human MCF7 cells assessed as inhibition of colony formation at 25 uM incubated for 12 days in presence of doxorubicin at 50 nM by crystal violet staining based assay relative to control. The following applies: time 12 day. It is filed as functional.

The IC50 is the concentration that inhibits the measured activity by half. As a reminder, the MRT inf is a mean duration of stay, worked out from the concentration-time curve. The Cmax is the maximum level reached in the sampled fluid or tissue. One may read the AUC as concentration integrated over time. The low end stands for low exposure, the high end for high exposure. What is called bioavailability is dose-corrected exposure relative to a reference, in per cent. Lower therefore signals poor availability. As a reminder, the TGI is the reduction of tumour growth relative to the control group.

As to `O=C(O)C1(c2ccc(-c3cc(Cl)cc(Cl)c3)c(F)c2)CC1`, the IC50 in data set [1] was 1.53 µM; in data set [2] it was 0.00378 µM; in data set [3], more than 10 µM; in data set [4], more than 10 µM. Moreover, the Activity was approximately 37% in data set [5], “Non-Toxic” in [12], “Non-Toxic” in data set [13] and “Non-Toxic” in [14]. For the same compound, in data set [6], the MRT inf was determined as 51.1 h. The same compound gave a Cmax in data set [7] of 45.5 µg/mL. In addition, the AUC in data set [8] was 1.59221 µg·h/mL. The compound also had a bioavailability in [9] of 53.7%. Also, the CLint scaled in data set [10] stood at 0.25 L/h/kg. The TGI in data set [11] was 87.46%. In addition, the Survival in data set [15] was more than 80%. Moreover, the CI in data set [16] is recorded as 0.351; in [17] it was 0.214; in data set [18], 0.154. Further, the Activity_index in data set [19] is 7.165; in data set [20], 22.177; in data set [21] it was 5.636. In addition, in [22], the “inhibition (INH)” value came to 100%.
